Results taken from patent US20210087620A1, “Target Gene Identifying Method for Tumor Treatment” (Samsung Life Public Welfare Foundation Samsung Life Public …, priority 2017, published 2021).

How the values were obtained:
[1] = system: left tumor-derived cells of the GBM9 patient; experiment: PDC-based chemical screening (ATP cell viability, dose-response AUC), left tumor; set-up: species or system human; conditions: GBM9 left tumor PDCs
Experimental: (§1) According to one embodiment, the measuring of drug sensitivity of each sample by subjecting the multiple samples to drug screening may include obtaining a cell viability curve of each sample according to a dose of each drug; and calculating an area under the curve.
(§2) GBM9 patient had tumors in the right and left frontal lobes of the brain, respectively. In this regard, 40 kinds of anticancer agents were administered to samples collected from the respective tumors, and tumor cell viability was examined.
(§3) When a curve of tumor cell viability vs drug dose is plotted, an area under the curve (AUC) may be used as an index of drug sensitivity. […]
(§4) PDCs grown in serum-free medium were seeded in 384 well plates at a density of 500 cells per well in duplicate or triplicate. […] After 6 days of incubation at 37° C. in a 5% CO2 humidified incubator, cell viability was analyzed using an adenosine triphosphate (ATP) monitoring system based on firefly luciferase (ATPLite™ 1step, PerkinElmer). At this time, viable cells were estimated using an EnVision Multilabel Reader (PerkinElmer). […] DRC fitting was performed using GraphPad Prism 5 (GraphPad) and evaluated by measuring an area under the curve (AUC) of dose response curve. After normalization, best-fit lines were determined and the AUC value of each curve was calculated using a GraphPad Prism. […]

[2] = system: right tumor-derived cells of the GBM9 patient; experiment: PDC-based chemical screening (ATP cell viability, dose-response AUC), right tumor; set-up: species or system human; conditions: GBM9 right tumor PDCs
Experimental: as §1, §2, §3, §4

[3] = 6 days, 20 μM to 4.88 nM, FIG. 6

Nc1cc(C(F)(F)F)c(-c2cc(N3CCOCC3)nc(N3CCOCC3)n2)cn1 [BKM120, Buparlisib]
survival rate of tumor cells with increasing drug dose [1, 3]: survival rates of the two tumors decreased
area under the curve (AUC) of cell viability vs dose (low AUC = high drug sensitivity) ([1]; FIG. 6, FIG. 7): relatively low
survival rate of tumor cells with increasing drug dose [2, 3]: survival rates of the two tumors decreased
area under the curve (AUC) of cell viability vs dose (low AUC = high drug sensitivity) ([2]; FIG. 6, FIG. 7): relatively low
